# Test results from ChEMBL document CHEMBL6087474, “Discovery of an Efficacious RET PROTAC Degrader with Enhanced Antiproliferative Activity against Resistant Cancer Cells Harboring RET Solvent-Front Mutations” (J Med Chem, 2025).
# Active and inactive are the calls of the source. The calls are words filed in the database; no cut-off is given here.
# Assays:
# [1] = Effect on Shc protein level in mouse BaF3 cells stably expressing wildtype KIF5B-RET assessed as fold change at 11.1 nM measured after 6 hrs by Western blot analysis; format: functional
# [2] = Effect on Shc protein level in mouse BaF3 cells stably expressing KIF5B-RET-V804M mutant assessed as fold change at 11.1 nM measured after 6 hrs by Western blot analysis (reference value: 1); format: functional
# [3] = molecular target: Protein cereblon/Eukaryotic peptide chain release factor GTP-binding subunit ERF3A (Mus musculus) (UniProt Q8C7D2+Q8R050); assay: PROTAC activity at CRBN/GSPT1 in mouse BaF3 cells overexpressing KIF5B-RET assessed as induction of GSPT1 degradation at 10 to 1000 nM incubated for 6 hrs by Western blot analysis; format: cell-based; settings: dose 10-1000 nM
# [4] = Induction of apoptosis in mouse BaF3 cells stably expressing wildtype KIF5B-RET fusion protein assessed as viable cells at 11.1 nM measured after 48 hrs by Annexin V-FITC/7-AAD staining based flow cytometric analysis (reference value: 86.65 %); format: functional; settings: read-out: Activity
# [5] = PROTAC activity at CRBN/KIF5B-RET-G810R mutant (unknown origin) expressed in mouse BaF3 cells assessed as induction of RET degradation measured after 6 hrs by Western blot analysis; format: cell-based; settings: BaF3, 6 h
# BaF3 [6] = assay: Antiproliferative activity against mouse BaF3 cells stably expressing CCDC6-RET-V804M mutant incubated for 72 hrs by CCK-8 assay; format: functional, cell-based; settings: BaF3, 72 h
# [7] = Induction of apoptosis in mouse BaF3 cells stably expressing KIF5B-RET-G810C mutant assessed as necrotic cells at 33.3 nM measured after 48 hrs by Annexin V-FITC/7-AAD staining based flow cytometric analysis (reference value: 2.89 %); format: functional
# [8] = Effect on Shc protein level in mouse BaF3 cells stably expressing KIF5B-RET-V804M mutant assessed as fold change at 33.3 nM measured after 6 hrs by Western blot analysis (reference value: 1); format: functional
# [9] = Effect on Shc protein level in mouse BaF3 cells stably expressing KIF5B-RET-G810C mutant assessed as fold change at 11.1 nM measured after 6 hrs by Western blot analysis (reference value: 1); format: functional
# [10] = Induction of apoptosis in mouse BaF3 cells stably expressing wildtype KIF5B-RET fusion protein assessed as viable cells at 300 nM measured after 48 hrs by Annexin V-FITC/7-AAD staining based flow cytometric analysis (reference value: 86.65 %); format: functional; settings: read-out: Activity
# [11] = Induction of apoptosis in mouse BaF3 cells stably expressing KIF5B-RET-G810C mutant assessed as viable cells at 300 nM measured after 48 hrs by Annexin V-FITC/7-AAD staining based flow cytometric analysis (reference value: 86.58 %); format: functional; settings: read-out: Activity
# [12] = Potency index, ratio of selpercatinib IC50 to test compound IC50 for antiproliferative activity against mouse BaF3 cells stably expressing KIF5B-RET-G810R mutant incubated for 72 hrs by CCK-8 assay; format: functional
# [13] = Induction of apoptosis in mouse BaF3 cells stably expressing wildtype KIF5B-RET fusion protein assessed as late apoptotic cells at 33.3 nM measured after 48 hrs by Annexin V-FITC/7-AAD staining based flow cytometric analysis (reference value: 1.03 %); format: functional
# [14] = Induction of apoptosis in mouse BaF3 cells stably expressing KIF5B-RET-G810C mutant assessed as late apoptotic cells at 33.3 nM measured after 48 hrs by Annexin V-FITC/7-AAD staining based flow cytometric analysis (reference value: 1.96 %); format: functional
# [15] = Effect on Shc protein level in mouse BaF3 cells stably expressing KIF5B-RET-G810R mutant assessed as fold change at 300 nM measured after 6 hrs by Western blot analysis (reference value: 1); format: functional
# [16] = Effect on RET protein level in mouse BaF3 cells stably expressing KIF5B-RET-G810R mutant assessed as fold change at 33.3 nM measured after 6 hrs by Western blot analysis (reference value: 1); format: functional
# [17] = Induction of apoptosis in mouse BaF3 cells stably expressing KIF5B-RET-G810C mutant assessed as viable cells at 900 nM measured after 48 hrs by Annexin V-FITC/7-AAD staining based flow cytometric analysis (reference value: 86.58 %); format: functional; settings: read-out: Activity
# BaF3 [18] = assay: Antiproliferative activity against mouse BaF3 cells stably expressing KIF5B-RET-G810S mutant incubated for 72 hrs by CCK-8 assay; format: functional, cell-based; settings: BaF3, 72 h
# [19] = Effect on RET protein level in mouse BaF3 cells stably expressing KIF5B-RET-V804M mutant assessed as fold change at 33.3 nM measured after 6 hrs by Western blot analysis (reference value: 1); format: functional
# [20] = Effect on Shc protein level in mouse BaF3 cells stably expressing KIF5B-RET-V804M mutant assessed as fold change at 300 nM measured after 6 hrs by Western blot analysis (reference value: 1); format: functional
# [21] = Effect on Shc protein level in mouse BaF3 cells stably expressing KIF5B-RET-G810C mutant assessed as fold change at 100 nM measured after 6 hrs by Western blot analysis (reference value: 1); format: functional
# [22] = Effect on RET protein level in mouse BaF3 cells stably expressing KIF5B-RET-V804M mutant assessed as fold change at 11.1 nM measured after 6 hrs by Western blot analysis (reference value: 1); format: functional
# [23] = Induction of apoptosis in mouse BaF3 cells stably expressing KIF5B-RET-G810C mutant assessed as necrotic cells at 300 nM measured after 48 hrs by Annexin V-FITC/7-AAD staining based flow cytometric analysis (reference value: 2.89 %); format: functional
# BaF3 [24] = assay: Antiproliferative activity against mouse BaF3 cells stably expressing CCDC6-RET incubated for 72 hrs by CCK-8 assay; format: functional, cell-based; settings: BaF3, 72 h
# [25] = Induction of apoptosis in mouse BaF3 cells stably expressing KIF5B-RET-G810C mutant assessed as late apoptotic cells at 100 nM measured after 48 hrs by Annexin V-FITC/7-AAD staining based flow cytometric analysis (reference value: 1.96 %); format: functional
# BaF3 [26] = assay: Antiproliferative activity against mouse BaF3 cells stably expressing KIF5B-RET-G810C mutant incubated for 72 hrs by CCK-8 assay; format: functional, cell-based; settings: BaF3, 72 h
# [27] = Induction of apoptosis in mouse BaF3 cells stably expressing wildtype KIF5B-RET fusion protein assessed as viable cells at 33.3 nM measured after 48 hrs by Annexin V-FITC/7-AAD staining based flow cytometric analysis (reference value: 86.65 %); format: functional; settings: read-out: Activity
# BaF3 [28] = assay: Antiproliferative activity against mouse BaF3 cells stably expressing KIF5B-RET-V804L mutant incubated for 72 hrs by CCK-8 assay; format: functional, cell-based; settings: BaF3, 72 h
# [29] = Induction of apoptosis in mouse BaF3 cells stably expressing KIF5B-RET-G810C mutant assessed as necrotic cells at 100 nM measured after 48 hrs by Annexin V-FITC/7-AAD staining based flow cytometric analysis (reference value: 2.89 %); format: functional
# [30] = Potency index, ratio of selpercatinib IC50 to test compound IC50 for antiproliferative activity against mouse BaF3 cells stably expressing KIF5B-RET-G810C mutant incubated for 72 hrs by CCK-8 assay; format: functional
# Protein cereblon/Eukaryotic peptide chain release factor GTP-binding subunit ERF3A (Mus musculus), sequence (Q8C7D2 whole entry, looked up, the tested form may be a part): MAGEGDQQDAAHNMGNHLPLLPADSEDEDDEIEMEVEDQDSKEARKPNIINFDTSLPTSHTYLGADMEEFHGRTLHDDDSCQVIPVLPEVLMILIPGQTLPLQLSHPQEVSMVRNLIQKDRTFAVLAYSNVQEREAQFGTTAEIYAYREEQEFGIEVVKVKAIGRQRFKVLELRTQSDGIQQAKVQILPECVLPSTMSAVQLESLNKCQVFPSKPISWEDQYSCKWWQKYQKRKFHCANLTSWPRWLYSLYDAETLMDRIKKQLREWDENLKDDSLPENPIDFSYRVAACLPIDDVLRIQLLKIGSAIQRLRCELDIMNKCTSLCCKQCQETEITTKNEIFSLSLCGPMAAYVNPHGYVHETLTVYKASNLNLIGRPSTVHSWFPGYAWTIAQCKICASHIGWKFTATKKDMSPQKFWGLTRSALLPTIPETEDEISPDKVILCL
# Protein cereblon/Eukaryotic peptide chain release factor GTP-binding subunit ERF3A (Mus musculus), sequence (Q8R050 whole entry, looked up, the tested form may be a part): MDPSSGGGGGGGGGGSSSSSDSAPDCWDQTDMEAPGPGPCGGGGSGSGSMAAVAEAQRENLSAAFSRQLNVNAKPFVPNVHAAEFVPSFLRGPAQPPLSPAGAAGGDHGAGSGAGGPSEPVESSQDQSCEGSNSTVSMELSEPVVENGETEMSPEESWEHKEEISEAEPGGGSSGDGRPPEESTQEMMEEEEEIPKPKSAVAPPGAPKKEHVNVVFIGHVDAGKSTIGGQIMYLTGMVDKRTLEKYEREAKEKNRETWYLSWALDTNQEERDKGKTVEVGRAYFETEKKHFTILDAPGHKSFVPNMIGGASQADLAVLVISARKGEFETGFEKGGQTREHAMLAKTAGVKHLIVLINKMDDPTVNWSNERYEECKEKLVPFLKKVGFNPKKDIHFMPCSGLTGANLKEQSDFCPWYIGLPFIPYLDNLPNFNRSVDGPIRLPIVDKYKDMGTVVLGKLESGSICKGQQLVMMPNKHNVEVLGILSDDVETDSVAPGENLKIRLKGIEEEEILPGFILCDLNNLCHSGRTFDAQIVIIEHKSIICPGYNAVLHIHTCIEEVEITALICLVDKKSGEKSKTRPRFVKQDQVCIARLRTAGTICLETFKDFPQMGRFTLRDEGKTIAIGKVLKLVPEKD
smiles,measurement,setting,value
COc1ccc(CN2C3CC2CN(c2ccc(-c4cc(-c5cnn(C6CCN(CCCCCC#Cc7cccc8c7CN(C7CCC(=O)NC7=O)C8=O)CC6)c5)cn5ncc(C#N)c45)cn2)C3)cn1 (stereo not given),fold change (FC),[1],1
same,fold change (FC),[2],1
same,Activity,[3],inactive
same,viability at 0.0111 µM,[4],83.8%
same,DC50,[5],> 300 nM
same,IC50,BaF3 [6],10 nM
same,Activity,[7],2.77%
same,fold change (FC),[8],1
same,fold change (FC),[9],1
same,viability at 0.3 µM,[10],50.2%
same,viability at 0.3 µM,[11],63.1%
same,Ratio IC50,[12],~7
same,Activity,[13],3.02%
same,Activity,[14],1.62%
same,fold change (FC),[15],0.9
same,fold change (FC),[16],0.9
same,viability at 0.9 µM,[17],41%
same,IC50,BaF3 [18],90 nM
same,fold change (FC),[19],0.2
same,fold change (FC),[20],1
same,fold change (FC),[21],1
same,fold change (FC),[22],0.7
same,Activity,[23],2.15%
same,IC50,BaF3 [24],10 nM
same,Activity,[25],2.61%
same,IC50,BaF3 [26],50 nM
same,viability at 0.0333 µM,[27],74.2%
same,IC50,BaF3 [28],50 nM
same,Activity,[29],2.09%
same,Ratio IC50,[30],~14
